Source: paper PMC3984256, “A PCNA-Derived Cell Permeable Peptide Selectively Inhibits Neuroblastoma Cell Growth” (PLoS ONE, 2014)

Tests used:
[1] = target: T1, interaction between PCNA and the PIP-box sequence of FEN1 (Homo sapiens, UniProt P39748); test: SPR (Biacore) PCNA binding to immobilized FEN1 PIP-box in presence of caPep
T1 construct: Recombinant PCNA (rPCNA), purchased from Surmodics, Inc. (Edina, MN); FEN1 peptide containing the PIP-box (SKSRQGSTQGRLDDFF); purchased Surmodics, Inc. (Edina, MN)
Procedure: All experiments were conducted on the Biacore T100 (GE Healthcare Life Sciences, Piscataway, NJ) in the running buffer HBS-EP+ (10 mM HEPES pH 7.4, 0.15 M NaCl, 3 mM EDTA, 0.05% v/v Surfactant P20). FEN1 peptide containing the PIP-box (SKSRQGSTQGRLDDFF) was immobilized on a carboxymethylated dextran modified CM5 chip using carbodiimide covalent linkage procedures outlined by the manufacturer (GE Healthcare Life Sciences). Recombinant PCNA (rPCNA), purchased from Surmodics, Inc. (Edina, MN), were serially diluted in the HBS-EP+ buffer and flowed over the FEN1-coated sensor chip in the presence of 0, 500, or 1000 nM of caPep at a 5 ìl/min flow rate with a contact time of 3 minutes, followed by dissociation under the same buffer condition and regeneration of the chip surface in 10 mM glycine-HCl (pH 2.0). Binding curves were recorded for rPCNA concentrations ranging from 250 to 1000 nM in the presence of 0, 500, or 1000 nM of caPep. Kinetic parameters from Biacore binding data were determined using Biacore T100 Evaluation Software Version 2.0.3.

[2] = test system: Rad51 foci in SK-N-BE(2)c cells; test: Rad51 foci immunofluorescence after γ-irradiation; format: cell-based, human; details: 2 h peptide pretreatment, 5 Gy; 48 h after irradiation
Procedure: (§1) To study DNA damage and repair, attached cells were pretreated with the peptides for 2 h and were then ã-irradiated (5 Gy). After irradiation, cells were cultured in the presence of the peptides for the indicated time. For analyzing ãH2A.X foci formation, cells were fixed in a solution of methanol and acetone (70%:30% v/v) for 15 min at −20°C. The slides were air-dried for storage and rehydrated in PBS prior to immunostaining. Cells were stained by a mouse monoclonal antibody specific to ãH2A.X (Millipore, Billerica, MA) followed by an Alexa Fluor 488 conjugated anti-mouse IgG antibody. For analyzing Rad51 foci formation, cells were fixed in PBS buffered 4% paraformaldehyde at room temperature for 15 min. After being washed twice by PBS, cells were permeabilized in PBS containing 0.5% triton for 15 min on ice. The fixed and permeabilized cells were stained with a rabbit polyclonal antibody raised against the human Rad51 (Santa Cruz) followed by an Alexa Fluor 488 conjugated anti-rabbit IgG antibody. Stained cells were visualized and imaged by a confocal microscope.

ãH2A.X level = test: γH2A.X western blot after γ-irradiation; format: cell-based; details: 30 µM peptide, 2 h pretreatment, 5 Gy
Procedure: as §1
Cell extracts were prepared by dissolving cell pellets directly into the Laemmli sample buffer and resolved in a 4–12% SDS polyacrylamide gel. Resolved proteins were blotted onto a nitrocellulose membrane. The membrane was blocked with 5% nonfat dry milk and incubated with an antibody specific to ãH2A.X (Millipore), total H2A.X (Cell Signaling Technology, Danvers, MA), MYCN (Cell Signaling Technology), or actin (Sigma) in the blocking buffer. After incubation with peroxidase-conjugated secondary antibodies, the protein of interest was detected using an ECL kit purchased from GE Healthcare.

[3] = test system: PCNA and LIGI co-localization in SK-N-AS NB cells; test: PCNA/LIGI co-localization, immunofluorescence; format: cell-based, human; details: synchronized, 30 µM peptide 6 h after mimosine release
Procedure: (§2) Cells were seeded at 1×10^5/ml onto a chamber slide and were allowed to attach overnight. To analyze the interaction of PCNA with FEN1, LIGI, or Pol ä, we first synchronize cells at the G1/S boundary. The synchronization is achieved by starving cells in medium containing 0.25% FBS for 24 h. Cells were further cultured in the complete medium containing 400 µM of mimosine for 24 h. To release cells into S phase, cells were washed and incubated in mimosine-free medium containing 30 µM R9-caPep or R9-srbPep for 6 h. We pre-determined that the majority of cells were in the S-phase 6 h after mimosine was removed (data not shown). Cells were fixed in ice-cold methanol:acetone (50%:50%) for 10 min or in 4% paraformaldehyde for 20 min at room temperature. Cells were incubated with a goat polyclonal anti-PCNA antibody (Santa Cruz) and a mouse monoclonal anti-FEN1 antibody (Santa Cruz), a mouse anti-POLD3 antibody (Sigma, St. Louis, MO), or a mouse anti-LIGI antibody (Abcam, Cambridge, MA) for 1 h at room temperature. After being washed with PBS, cells were incubated with Alexa Fluor 488 conjugated anti-mouse IgG and Alexa Fluor 555 conjugated anti-goat IgG antibodies (Invitrogen, Grand Island, NY) for 1 h. Cells were mounted in Vectashield with DAPI (Vector Labs, Burlingame, CA) and visualized by a confocal microscope.

synchronized cells = test: Cell cycle analysis of synchronized cells within 6 h (data not shown); format: cell-based; details: 6 h after mimosine release
Procedure: Cells were seeded at 1×10^5/ml. Once attached, cells were treated with or without R9-caPep for 48 hours. Cells were fixed in 60% ethanol and stained with propidium iodide (PI). The cellular PI fluorescence intensity was determined by flow cytometry. The flow cytometry data were analyzed by the FlowJo program to model various cell populations.
as §2, with “After being washed with PBS, cells were incubated with Alexa Fluor 488 conjugated anti-mouse IgG and Alexa Fluor 555 conjugated anti-goat IgG antibodies (Invitrogen, Grand Island, NY) for 1 h. Cells were mounted in Vectashield with DAPI (Vector Labs, Burlingame, CA) and visualized by a confocal microscope.” left out

panel of NB cell lines = format: cell-based, human; details: up to 50 µM; data not shown
Procedure: The human NB cell lines, SK-N-DZ, SK-N-BE(2)c, SK-N-AS, SK-N-SH, and SK-N-FI were obtained from the American Type Culture Collection (Rockville, MD). Cells were maintained in DMEM with 10% fetal bovine serum (FBS), 100 units/ml penicillin, and 100 µg/ml streptomycin in the presence of 5% CO2 at 37°C. Human PBMCs from a healthy donor were purchased from Sanguine BioSciences (Valencia, CA) and grown in RPMI1640 with10% FBS, 100 units/ml penicillin, 100 µg/ml streptomycin, and 10 ng/ml IL-2 in the presence of 5% CO2 at 37°C. Human embryonic progenitor cell line 7SM0032 was acquired from Millipore (Billerica, MA) and grown in the hEPM-1 Media Kit purchased from the same company.
To measure cell growth, cells were seeded at 3×10^4/ml. After being allowed to attach overnight, cells were treated with various concentrations of the peptides for 72 h. Cell growth was measured by the CellTitor-Glo assay (Promega, Madison, WI) according to manufacturer's instruction. To measure apoptosis, cells were seeded at 1×10^5/ml onto a chamber slide. Once attached, cells were treated with the peptides for 48 h. Cells were fixed and analyzed by a TUNEL assay using the TMR red in situ cell death detection kit (Roche Diagnostics, Indianapolis, IN).

[4] = test system: PCNA and FEN1 co-localization in SK-N-AS NB cells; test: PCNA/FEN1 co-localization, immunofluorescence; format: cell-based, human; details: synchronized, 30 µM peptide 6 h after mimosine release
Procedure: as §2

SK-N-BE(2)c cells = test: Clonogenic assay; format: cell-based, human; details: R9-caPep alone 20 µM 3 weeks, or cisplatin alone 1 µM 2 h, 3 dishes averaged
Procedure: Three hundred fifty SK-N-BE(2)c cells were seeded onto a 60-mm tissue culture dish. Once attached overnight, cells were treated with or without cisplatin for 2 h. Cells were washed twice with growth medium and were cultured in fresh medium with or without R9-caPep for 3 weeks to allow colony formation. The medium was changed every 3 d. The colonies formed under each treatment conditions were counted after being stained with 0.5% crystal violet.

Compound: caPep: eight amino acid peptide corresponding to the L126-Y133 sequence of human PCNA (LGIPEQEY)
- affinity of PCNA-FEN1 PIP-box interaction ([1]; 0, 500 or 1000 nM caPep): decrease the affinity of PCNA-FEN1 PIP-box interaction in a dose-dependent manner
- rPCNA interaction with immobilized FEN1 PIP-box sequence (SPR response) ([1]; 1000 nM rPCNA, 0, 500 or 1000 nM caPep): significantly reduced rPCNA interaction with the immobilized FEN1 PIP-box sequence

Compound: RDRDRDRDRDRDRDRDRDCCEPGLIYEQ [R9-srbPep, R9-CC fused to the same residues as PCNA L126-Y133 in scrambled order; control]
- Rad51 foci at 48 h [2]: almost completely resolve the Rad51 foci
- ãH2A.X level within 30 min after irradiation (ãH2A.X level): increased within 30 min following ã-irradiation in cells treated with either peptide
- ãH2A.X level 48 h after irradiation (ãH2A.X level; 48 h): went down to a basal level by 48 h
- LIGI co-localization with PCNA foci [3]: PCNA co-localized with FEN1 and LIGI at discrete foci
- cell cycle progress within 6 h (synchronized cells): neither peptide significantly affected cell cycle progress within 6 h
- effect on cell growth (panel of NB cell lines): did not significantly affect cell growth up to 50 µM
- FEN1 co-localization with PCNA foci [4]: PCNA co-localized with FEN1 and LIGI at discrete foci

Compound: N.N.[Cl][Pt][Cl] [cisplatin, reference compound]
- reduction of number of colonies, single agent (SK-N-BE(2)c cells): less than 30%
